In article PMC4640556, “Primary Amine Oxidase of Escherichia coli Is a Metabolic Enzyme that Can Use a Human Leukocyte Molecule as a Substrate” (PLoS ONE, 2015):
Like-named read-outs stand apart in the source and are kept apart here.

How the values were obtained:
[1] = target: T1, ECAO (Escherichia coli, UniProt P46883); design: method as in PMID 7765483; conditions: cited from earlier work
T1 construct: made in house; host or cells: E. coli; inferred from the overexpression strain E. coli (pKK233-3-tynA)

[2] = target: T1, ECAO; experiment: ECAO inhibitor test (spectroscopic amine oxidase activity assay, purified ECAO, substrate PEA); assay type: biochemical; conditions: for decrease of ECAO activity by aminoglycoside: aminoglycoside 1 mM (Fig 2C), sisomycin p = 0.06; for IC50: purified ECAO
Protocol: To determine the effect of different inhibitors on ECAO activity, we used purified ECAO protein and a spectroscopic amine oxidase activity assay, which is not as sensitive to additives as the Amplex Red assay. In short, 21 ng of ECAO protein was incubated with differing amounts of inhibitors in Krebs-Ringer phosphate glucose buffer for 20 min at 30°C. After incubation, we added substrate (0.5 mM PEA) and a mixture of 1 mM vanillic acid, 0.5 mM 4-aminopyridine, and 16 U of horseradish peroxidase, and measured the A492nm immediately and hourly thereafter.

[3] = tested on: wt E. coli (tynA+); experiment: Growth inhibition assay in liquid medium, wt / tynA+ strains; assay type: cell-based, Escherichia coli; conditions: SC concentrations lower than 5–10 mM (S5 Fig)
Protocol: (§1) To assess the effect of inhibitors on bacterial growth, discs with different concentrations of SC were placed on LA plates freshly plated with either tynA+ E. coli (three different strains) or tynA- E. coli (five strains). The inhibition zones were measured the next day. For the growth inhibition assay in a liquid medium, the same strains were cultured in tryptic soy broth (TSB) medium for 14–16 h. Then, 10^3 cells were inoculated into TSB medium with different concentrations (0–100 mg/mL) of SC and cultured further at 37°C with shaking at 100 rpm until the following day. Then, 10 μL of bacterial mixture was plated on lactose medium plates, and the plates were incubated at 37°C for 14–16 h before counting the colonies.
(§2) The inhibition of growth by a selective hydrazine-based human amine oxidase inhibitor, BTT-2052 [30], and SC on tynA+ and tynA- strains was tested similarly in M9-lactose-PEA medium using inhibitor concentrations of 0–0.5 mM.

[4] = tested on: tynA+ E. coli and tynA- E. coli; experiment: Growth inhibition on LA plates (discs with SC); assay type: cell-based, Escherichia coli; conditions: data not shown
Protocol: as §1

[5] = target: T1, ECAO; experiment: ECAO activity with human granulocytes as sole substrate (Amplex Red, H2O2 production); assay type: biochemical; conditions: 30 nM ECAO, 200,000 granulocytes per well, 37°C, Cells + ECAO + SC, p = 0.004
Text: To test if ECAO has a substrate on human granulocytes, we used purified recombinant protein ECAO, whose production and purification has been described. To collect human neutrophils, we extracted granulocytes from the fresh peripheral blood of healthy volunteers using Ficoll (GE Healthcare). We collected buffy coats according to standard procedure, lysed red blood cells with Pharm Lyse (BD Biosciences, Franklin Lakes, NJ, USA), washed with PBS, counted the cells, and used the cells immediately. The assay was conducted in 25 mM HEPES and 150 mM NaCl (pH 7.4), and we used 30 nM ECAO and 200,000 viable granulocytes per well. PEA was used as a positive control for the substrate, and the specific activity was determined using parallel wells with SC, as described above. The assay was conducted at 37°C. Three independent assays (different blood donors) were performed with duplicates.

[6] = tested on: ΔtynA strain; experiment: Growth inhibition assay in liquid medium, ΔtynA / tynA- strains; assay type: cell-based, Escherichia coli; conditions: liquid medium (S5 Fig)
Protocol: as §1, §2

[7] = PEA, aminoglycoside concentrations 10 μM–10 mM, read-out: half maximal inhibitory concentration (IC50) of aminoglycosides on ECAO activity on PEA

T1 sequence (P46883 31-757): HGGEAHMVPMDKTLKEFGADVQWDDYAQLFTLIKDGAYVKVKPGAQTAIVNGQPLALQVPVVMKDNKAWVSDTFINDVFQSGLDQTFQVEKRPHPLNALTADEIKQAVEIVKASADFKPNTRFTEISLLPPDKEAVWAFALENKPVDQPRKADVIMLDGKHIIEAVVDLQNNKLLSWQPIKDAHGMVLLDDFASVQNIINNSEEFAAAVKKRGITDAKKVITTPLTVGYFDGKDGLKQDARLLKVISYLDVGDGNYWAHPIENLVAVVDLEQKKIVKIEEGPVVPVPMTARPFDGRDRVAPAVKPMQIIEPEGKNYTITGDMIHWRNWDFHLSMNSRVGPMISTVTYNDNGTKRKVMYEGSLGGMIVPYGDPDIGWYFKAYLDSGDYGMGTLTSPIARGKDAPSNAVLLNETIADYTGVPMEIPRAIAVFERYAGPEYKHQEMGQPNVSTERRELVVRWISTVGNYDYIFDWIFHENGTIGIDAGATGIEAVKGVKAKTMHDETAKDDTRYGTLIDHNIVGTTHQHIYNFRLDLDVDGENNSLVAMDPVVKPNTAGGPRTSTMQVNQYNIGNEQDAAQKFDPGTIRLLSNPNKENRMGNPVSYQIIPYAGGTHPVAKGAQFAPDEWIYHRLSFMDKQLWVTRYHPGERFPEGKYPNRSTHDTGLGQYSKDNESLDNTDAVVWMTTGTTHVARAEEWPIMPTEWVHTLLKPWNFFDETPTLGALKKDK

Molecule | effect on ECAO activity [1] | decrease of ECAO activity by aminoglycoside [2] | IC50 [2, 7] [µM] | also measured
CC(C)NNC(=O)c1ccncc1 [iproniazid] | inhibited |  |  | 
N[C@@H]1C[C@H]1c1ccccc1 [tranycypromine] | inhibited |  |  | 
NNCCc1ccccc1 [phenelzine] | inhibited |  |  | 
CN[C@@H]1[C@@H](O)[C@@H](O[C@@H]2[C@@H](O)[C@H](O[C@H]3OC(CN)=CC[C@H]3N)[C@@H](N)C[C@H]2N)OC[C@]1(C)O [sisomycin] |  | 23–61% |  | 
NC[C@H]1O[C@H](O[C@H]2[C@H](O)[C@@H](O[C@H]3O[C@H](CO)[C@@H](O)[C@H](N)[C@H]3O)[C@H](N)C[C@@H]2N)[C@H](N)C[C@@H]1O [tobramycin] |  | 23–61% | 800 | 
NO [hydroxylamine] | inhibited |  |  | 
NC[C@H]1O[C@H](O[C@H]2[C@H](O)[C@@H](O[C@H]3O[C@H](CO)[C@@H](O)[C@H](N)[C@H]3O)[C@H](N)C[C@@H]2N)[C@H](O)[C@@H](O)[C@@H]1O [kanamycin] |  | 23–61% | 3800 | 
NNC(N)=O [SC, semicarbazide] | inhibited |  |  | effect on growth in liquid rich media [3]: no significant effect; IC50 ([2]; 0.5 mM PEA, seven inhibitor concentrations 0.1–10 μM, 30°C, read-out: half maximal inhibitory concentration (IC50) on ECAO activity on PEA): 0.7 µM; effect on bacterial growth on LA plates ([4]; at 100 mg/mL): minimal; effect on bacterial growth on LA plates ([4]; under the concentration of 100 mg/mL): no effect; effect on H2O2 production by ECAO with granulocytes as only source of substrate [5]: inhibited; effect on growth of the ΔtynA strain [6]: no effect
Gentamycin |  | no effect |  | 
NCC[C@H](O)C(=O)N[C@@H]1C[C@H](N)[C@@H](O[C@H]2O[C@H](CN)[C@@H](O)[C@H](O)[C@H]2O)[C@H](O)[C@H]1O[C@H]1O[C@H](CO)[C@@H](O)[C@H](N)[C@H]1O [amikacin] |  | 23–61% | 1000 | 
